Experimental data taken from US9808434B2, “Compound for treating cancer and diabetes” (CITY OF HOPE, priority 2011, dated 2017).

Tests used:
GSTP = target: T1, GSTP (Homo sapiens, UniProt P09211); assay: GSTP activity towards CDNB in the presence of GSR4; format: biochemical; conditions: activity towards CDNB; read-out: estimated Ki (product inhibitor of GSTP)
T1 construct: made in house; host or cells: E. coli BL21 (DE3)
Description: Furthermore, GSTP activities towards CDNB were assessed in the presence of various concentration of GSR4. The GSTP activities decreased when the concentration of GSR4 increased (Table 3). Thus, […] was a product inhibitor of GSTP with an estimated Ki of less than 5 μM.

PBT-017 glioma cells = assay: Combination index with chemotherapy drugs, PBT-017; format: cell-based
Description: Effects of combination of COH-SR4 and a chemotherapy drug such as TMZ, SN38, CPT-11, and 5-FU were studied by combination index (CI) theorem and plot using the method described in Chou (“Experimental Design, and Computerized Simulation of Synergism and Antagonism in Drug Combination Studies,” Pharmacological Reviews, Vol. 58, No. 3), which is incorporated herein by reference in its entirety.
COH-SR4 and a chemotherapy drug (TMZ, SN38, CPT-11, or 5-FU) were dissolved in DMSO individually, and then diluted to the appropriate concentration in the same cell culture media before applying to cells of each cell line. After 4 days, the amount of ATP present in the cell lysates were assessed using Progema's CellGlo kit. The CI of each combination of COH-SR4 and the chemotherapy drug was calculated and plotted against the concentration of COH-SR4 for each concentration of the chemotherapy drug used.

GST = assay: Total GST activity towards CDNB in H358 tumor tissue lysates; format: in vivo; conditions: n=3; control 0.32±0.03
Text: The effect of COH-SR4 on signaling pathways of relevance to lung cancer progression was further analyzed by Western-blots of lysates from resected tumors (as described in Example 31). GAPDH was used as internal control. The bar diagrams (FIG. 82B) represent the fold change in the levels of proteins as compared to the controls as determined by densitometry. Dotted line represents no significant change observed when compared to the controls. The COH-SR4 treated groups had high levels of cleaved-PARP compared to the untreated controls, which reinforces the finding of apoptotic effect as observed in-vitro by TUNEL assay. Akt is a signaling protein that transduces the proliferative signals from upstream integrins and growth factor receptors. The COH-SR4 treatments increased the levels of PARP cleavage along with decreased levels of pAkt (S^473). […] In accordance with decreased levels of pAkt (S^473), the levels of pP70S6K were decreased in COH-SR4 treated groups compared to controls. […] COH-SR4 treated tumor tissue lysates were analyzed to test the impact of long term COH-SR4 treatment in vivo on GST expression and activity. […] The total GST activity as measured by activity towards CDNB as a substrate, in COH-SR4 treated tumor tissue lysates was lower compared to the controls [control, 0.32±0.03 U/mg protein; COH-SR4 treated, 0.21±0.05 U/mg protein; (n=3)]. […]

Hs600T = assay: MTT assay, Hs600T; format: cell-based; conditions: Homo sapiens
Description: Cell density measurements were performed using a hemocytometer to count reproductive cells resistant to staining with trypan blue. Approximately 20,000 cells were plated into each well of 96-well flat-bottomed micro-titer plates. After 12 h or 24 h incubation at 37° C., medium containing either COH-SR4 (ranging 0-200 μM) or elesclomol (ranging 0-20 μM) were added to the cells. After 24 h, 48 h or 96 h incubation, 20 μL of 5 mg/mL MTT were introduced to each well and incubated for 2 h. The plates were centrifuged and medium was decanted. Cells were subsequently dissolved in 100 μl DMSO with gentle shaking for 2 h at room temperature, followed by measurement of OD570 (91).
Cells of highly aggressive mouse melanoma cell line B16-F0 or human melanoma cell line Hs600T were incubated with various doses of COH-SR4 (1, 2.5, 5, 10, 25, 50, or 100 μM). The cell viabilities after treatment of 48 hours and 96 hours were measured and summarized in FIGS. 54A and 55A, respectively. […] Data were presented as mean±Standard Deviation from two separate determinations with eight replicate each (n=16).

T1 sequence (P09211 whole entry): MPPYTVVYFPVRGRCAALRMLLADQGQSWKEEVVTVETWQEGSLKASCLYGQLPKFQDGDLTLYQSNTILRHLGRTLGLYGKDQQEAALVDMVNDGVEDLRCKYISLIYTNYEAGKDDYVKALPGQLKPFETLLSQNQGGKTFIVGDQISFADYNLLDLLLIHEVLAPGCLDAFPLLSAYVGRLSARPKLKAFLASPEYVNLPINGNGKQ

Q: With O=C(Nc1cc(Cl)cc(Cl)c1)Nc1cc(Cl)cc(Cl)c1 [COH-SR4, 1,3-bis(3,5-dichlorophenyl) urea] as the compound, how does the Ki (GSTP) read?
A: < 5 µM

Q: And the “combination effect (CI) with 5-FU” value (PBT-017 glioma cells; COH-SR4 <0.05 μM + 5-FU >250 μM)?
A: Additive effects

Q: And the “combination effect (CI) with CPT-11” value (PBT-017 glioma cells; COH-SR4 <0.5 μM + CPT-11 <0.0625 μM)?
A: Synergism

Q: And the “combination effect (CI) with SN-38” value (PBT-017 glioma cells; COH-SR4 <0.5 μM + SN-38 <0.0004 μM)?
A: Synergism

Q: And the “combination effect (CI) with TMZ” value (PBT-017 glioma cells; COH-SR4 <0.5 μM + TMZ 25 μM)?
A: Synergism

Q: What about the “combination effect (CI) with TMZ” value (PBT-017 glioma cells; COH-SR4 <1.0 μM + TMZ >100 μM) of the same compound?
A: Additive effects

Q: And the “combination effect (CI) with SN-38” value (PBT-017 glioma cells; COH-SR4 >0.5 μM + SN-38 <0.001 μM)?
A: Additive effects

Q: What about the “combination effect (CI) with CPT-11” value (PBT-017 glioma cells; COH-SR4 >1.0 μM + CPT-11 <0.5 μM) of the same compound?
A: Additive effects

Q: What about the “total GST activity towards CDNB” value (GST) of the same compound?
A: 0.21±0.05 U/mg protein

Q: What about the IC50 (Hs600T; 48 h) of the same compound?
A: ~10 µM

Q: What about the IC50 (Hs600T; 96 h) of the same compound?
A: ~6 µM
